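Where inhibition never reached the appropriate level, the endpoint shown equals the highest concentration tested. Otherwise, values were interpolated linearly from a five-concentration, 48-hour dose response in 96-well plates. Here, GI50 denotes the concentration required for 50% inhibition of growth. TGI is the concentration that stops growth completely.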
Key:
Experiment in all cases: NCI tumour cell line growth inhibition, 48 h
M14 melanoma = system: M14 melanoma
HT29 colon = system: HT29 colon
SN12C renal = system: SN12C renal
TK-10 renal = system: TK-10 renal
SK-OV-3 ovarian = system: SK-OV-3 ovarian
LOX IMVI melanoma = system: LOX IMVI melanoma
SNB-19 CNS = system: SNB-19 CNS
IGROV1 ovarian = system: IGROV1 ovarian
RXF 393 renal = system: RXF 393 renal
HOP-62 NSCLC = system: HOP-62 NSCLC
MDA-N = system: MDA-N

SMILES: CCCc1c(C(=O)OCC)[nH]c(-c2ccc(-c3[nH]c(C(=O)OCC)c(CCC)c3C(=O)OCC)s2)c1C(=O)OCC
- TGI (M14 melanoma): > 100 µM
- TGI (HT29 colon): > 100 µM
- TGI (SN12C renal): > 100 µM
- TGI (TK-10 renal): > 100 µM
- TGI (SK-OV-3 ovarian): 98.6 µM
- TGI (LOX IMVI melanoma): 66.3 µM
- TGI (SNB-19 CNS): > 100 µM
- TGI (IGROV1 ovarian): > 100 µM
- TGI (RXF 393 renal): 28.5 µM

SMILES: CCN(CC)CCCNC(=O)c1cc2cc(NC(=O)c3cc4cc([N+](=O)[O-])ccc4[nH]3)ccc2[nH]1
- TGI (HOP-62 NSCLC): 93.4 µM
- TGI (M14 melanoma): > 100 µM
- TGI (HT29 colon): > 100 µM
- TGI (SN12C renal): > 100 µM
- TGI (TK-10 renal): > 100 µM
- TGI (SK-OV-3 ovarian): > 100 µM
- TGI (MDA-N): > 100 µM
- TGI (SNB-19 CNS): > 100 µM
- TGI (IGROV1 ovarian): > 100 µM
- TGI (RXF 393 renal): > 100 µM

SMILES: CC(=O)NNc1nc(C)c(C(=O)NNC(=O)C(=O)Nc2cccc(C(C)=O)c2)s1
- TGI (HOP-62 NSCLC): 68.2 µM
- TGI (HT29 colon): > 100 µM
- TGI (SN12C renal): 35.1 µM
- TGI (TK-10 renal): 31.1 µM
- TGI (SK-OV-3 ovarian): 32.5 µM
- TGI (LOX IMVI melanoma): 39.1 µM
- TGI (SNB-19 CNS): > 100 µM
- TGI (IGROV1 ovarian): 60.7 µM
- TGI (RXF 393 renal): 30 µM

SMILES: C[S+](C)CC1OC(n2cnc3c(N)ncnc32)C(O)C1O (stereo not drawn)
- TGI (HOP-62 NSCLC): > 225 µM
- TGI (HT29 colon): > 225 µM
- TGI (SN12C renal): > 225 µM
- TGI (SK-OV-3 ovarian): > 225 µM
- TGI (LOX IMVI melanoma): > 225 µM
- TGI (SNB-19 CNS): > 225 µM
- TGI (IGROV1 ovarian): > 225 µM
- TGI (RXF 393 renal): > 225 µM

SMILES: C=C(C)C1CC/C(C)=C/CC[C@]2(C)O[C@@H]2CCC2=CC1OC2=O (stereo partly drawn)
- GI50 (HOP-62 NSCLC): > 100 µM
- TGI (HOP-62 NSCLC): > 100 µM
- GI50 (M14 melanoma): 37.2 µM
- TGI (M14 melanoma): > 100 µM
- GI50 (SN12C renal): 78.8 µM
- TGI (SN12C renal): > 100 µM
- GI50 (TK-10 renal): 15.7 µM
- TGI (TK-10 renal): > 100 µM
- GI50 (SK-OV-3 ovarian): > 100 µM
- TGI (SK-OV-3 ovarian): > 100 µM
- GI50 (LOX IMVI melanoma): 15.1 µM
- TGI (LOX IMVI melanoma): 48.2 µM
- GI50 (SNB-19 CNS): > 100 µM
- TGI (SNB-19 CNS): > 100 µM
- GI50 (IGROV1 ovarian): 50.4 µM
- TGI (IGROV1 ovarian): > 100 µM

SMILES: Cn1c([C@H](C#N)C(=O)c2cc(O)ccc2[N+](=O)[O-])nc2ccccc21
- TGI (HOP-62 NSCLC): > 100 µM
- TGI (M14 melanoma): > 100 µM
- TGI (HT29 colon): > 100 µM
- TGI (SN12C renal): > 100 µM
- TGI (TK-10 renal): > 100 µM
- TGI (LOX IMVI melanoma): > 100 µM
- TGI (MDA-N): > 100 µM
- TGI (SNB-19 CNS): > 100 µM
- TGI (IGROV1 ovarian): > 100 µM

SMILES: COc1ccc2c(c1)OCCc1cn[nH]c1-2
- TGI (HOP-62 NSCLC): > 100 µM
- TGI (HT29 colon): > 100 µM
- TGI (SN12C renal): > 100 µM
- TGI (SK-OV-3 ovarian): > 100 µM
- TGI (LOX IMVI melanoma): > 100 µM
- TGI (SNB-19 CNS): > 100 µM
- TGI (IGROV1 ovarian): 56.1 µM
- TGI (RXF 393 renal): > 100 µM

SMILES: CN(C)CCNC(=O)c1cccc2cc3cc(O)ccc3nc12
- TGI (HOP-62 NSCLC): 2.94 µM
- TGI (HT29 colon): 4.95 µM
- TGI (SN12C renal): 4.65 µM
- TGI (SK-OV-3 ovarian): 4.27 µM
- TGI (LOX IMVI melanoma): 2.72 µM
- TGI (SNB-19 CNS): 3.53 µM
- TGI (IGROV1 ovarian): 4.43 µM
- TGI (RXF 393 renal): 10 µM

SMILES: CC(C)OP(=O)(OC(C)C)C1=NN(c2ccc([N+](=O)[O-])cc2)C(P(=O)(OC(C)C)OC(C)C)=NN1c1ccc([N+](=O)[O-])cc1
- TGI (HOP-62 NSCLC): > 100 µM
- TGI (M14 melanoma): > 100 µM
- TGI (HT29 colon): > 100 µM
- TGI (SN12C renal): > 100 µM
- TGI (TK-10 renal): > 100 µM
- TGI (SK-OV-3 ovarian): > 100 µM
- TGI (LOX IMVI melanoma): > 100 µM
- TGI (SNB-19 CNS): > 100 µM
- TGI (IGROV1 ovarian): > 100 µM
- TGI (RXF 393 renal): > 100 µM

SMILES: Cc1c(OCc2ccccc2)c(=O)ccn1CCc1c[nH]c2ccccc12
- TGI (HOP-62 NSCLC): > 100 µM
- TGI (M14 melanoma): 86.2 µM
- TGI (HT29 colon): 71.9 µM
- TGI (SN12C renal): > 100 µM
- TGI (TK-10 renal): > 100 µM
- TGI (SK-OV-3 ovarian): > 100 µM
- TGI (LOX IMVI melanoma): > 100 µM
- TGI (MDA-N): 79.9 µM
- TGI (SNB-19 CNS): > 100 µM
- TGI (IGROV1 ovarian): > 100 µM

SMILES: O=c1c2ccccc2nc(-c2ccccc2)n1NC(=S)Nc1ccc(Cl)cc1
- TGI (HOP-62 NSCLC): > 100 µM
- TGI (M14 melanoma): > 100 µM
- TGI (HT29 colon): > 100 µM
- TGI (SN12C renal): > 100 µM
- TGI (TK-10 renal): > 100 µM
- TGI (SK-OV-3 ovarian): > 100 µM
- TGI (LOX IMVI melanoma): > 100 µM
- TGI (IGROV1 ovarian): > 100 µM
- TGI (RXF 393 renal): > 100 µM

SMILES: O=C1Nc2cc([N+](=O)[O-])c(Br)cc2C1=O
- TGI (HOP-62 NSCLC): 75.1 µM
- TGI (M14 melanoma): 30.1 µM
- TGI (HT29 colon): 41.9 µM
- TGI (SN12C renal): 32.7 µM
- TGI (TK-10 renal): > 100 µM
- TGI (SK-OV-3 ovarian): > 100 µM
- TGI (LOX IMVI melanoma): 35.2 µM
- TGI (IGROV1 ovarian): 32.7 µM
- TGI (RXF 393 renal): 39.4 µM

SMILES: CCOC(=O)C(C)Sc1nnc(COc2ccccc2OC)n1-c1ccccc1 (stereo not drawn)
- TGI (HOP-62 NSCLC): > 100 µM
- TGI (M14 melanoma): > 100 µM
- TGI (HT29 colon): > 100 µM
- TGI (SN12C renal): > 100 µM
- TGI (TK-10 renal): > 100 µM
- TGI (SK-OV-3 ovarian): > 100 µM
- TGI (LOX IMVI melanoma): 34.4 µM
- TGI (SNB-19 CNS): > 100 µM
- TGI (IGROV1 ovarian): > 100 µM
- TGI (RXF 393 renal): > 100 µM

SMILES: CC(C)(C)C(=O)OCC1OC(N=[N+]=[N-])C(OC(=O)C(C)(C)C)C(OC(=O)C(C)(C)C)C1OC(=O)C(C)(C)C (stereo not drawn)
- TGI (HOP-62 NSCLC): > 100 µM
- TGI (M14 melanoma): > 100 µM
- TGI (HT29 colon): > 100 µM
- TGI (SN12C renal): > 100 µM
- TGI (TK-10 renal): > 100 µM
- TGI (SK-OV-3 ovarian): > 100 µM
- TGI (SNB-19 CNS): > 100 µM
- TGI (IGROV1 ovarian): > 100 µM
- TGI (RXF 393 renal): > 100 µM

SMILES: Nc1cccc(S(=O)(=O)Nc2nnc(S(N)(=O)=O)s2)c1
- TGI (HOP-62 NSCLC): > 100 µM
- TGI (M14 melanoma): > 100 µM
- TGI (HT29 colon): > 100 µM
- TGI (TK-10 renal): > 100 µM
- TGI (SK-OV-3 ovarian): > 100 µM
- TGI (LOX IMVI melanoma): > 100 µM
- TGI (SNB-19 CNS): > 100 µM
- TGI (IGROV1 ovarian): > 100 µM
- TGI (RXF 393 renal): > 100 µM

SMILES: COc1ccc2nc3c(c(NCCCN(C)C)c2c1)CCCC3
- TGI (HOP-62 NSCLC): 30.9 µM
- TGI (M14 melanoma): 26.1 µM
- TGI (HT29 colon): 27.6 µM
- TGI (SN12C renal): 47.2 µM
- TGI (TK-10 renal): > 100 µM
- TGI (SK-OV-3 ovarian): 58.4 µM
- TGI (LOX IMVI melanoma): 25.8 µM
- TGI (SNB-19 CNS): 48.8 µM
- TGI (IGROV1 ovarian): 47 µM
- TGI (RXF 393 renal): 29.5 µM

Reference: PubChem BioAssay (NCI)
